One assay deals with morphine tolerance. As to conditions: literature background; cited from earlier work.
The next assay has as its system tolerance to morphine. In words: Morphine tolerance in mice, hot plate test. Format: in vivo. The protocol:
Mice were treated twice a day with either saline (naive) or morphine (s.c., 10 mg/kg) for a period of 4 days to induce tolerance. For comparison, a dose of 10 mg, or less than 0.15 mg/kg every 4 to 10 hours, is a morphine dosage routinely prescribed for the 70 kg. human adult with severe pain. On day 5, all mice received a subcutaneous challenge dose of 3 mg./kg morphine and the level of analgesia was measured 30 minutes later. […] Tolerance to morphine was eliminated in mice that were treated with the superoxide dismutase catalyst SC-72325 administered intraperitoneally.

The subject of assay [1] is temporomandibular joint dysfunction. As to conditions: intra-articular injections, patients with TMJ dysfunction; cited from earlier work.

With `C[C@]12N[C@H](Cc3ccccc31)c1ccccc12` [MK-801], the morphine tolerance entry in the assay on morphine tolerance is “prevent morphine tolerance”.

`NC(=NCCC[C@H](N)C(=O)O)N[N+](=O)[O-]` [NG-nitroarginine]: the morphine tolerance result in the assay with morphine tolerance was “prevent and reverse morphine tolerance”.

Turning to `CN1CC[C@]23c4c5ccc(O)c4O[C@H]2[C@@H](O)C=C[C@H]3[C@H]1C5` [morphine], the “analgesic effect from morphine on day 5” value with tolerance to morphine (mice treated with morphine s.c. 10 mg/kg twice a day for 4 days, challenge 3 mg/kg, 30 minutes, versus naive mice) was “decreased analgesic effect”. The molecule also had an analgesia with tolerance to morphine (naive or non-tolerant mice, s.c. challenge dose 3 mg/kg, hot plate test) of 90%.

For “human Cu/Zn superoxide dismutase: naturally occurring enzyme used intra-articularly as a nonsteroidal anti-inflammatory”, the “Positive response in terms of mandibular movement and pain” value in assay [1] was 83 % of patients.

Values taken from patent US6395725B1, “Analgesic methods using synthetic catalysts for the dismutation of superoxide radicals” (priority 1997, dated 2002).
